Data taken from article PMC8958501, “Hypothesis-Driven, Structure-Based Design in Photopharmacology: The Case of eDHFR Inhibitors” (Journal of Medicinal Chemistry, 2022).
Where two headings read alike, the source gives them in different places.

Legend:
eDHFR = target: T1, eDHFR (Escherichia coli, UniProt P0ABQ4); test: biochemical; details: for light-induced change in eDHFR inhibition (dark IC50 vs irradiated IC50): irradiation with λ1 = 365 nm;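 on all read-outs here: purified E. coli DHFR colorimetric assay, enzyme with NADPH 3 min then inhibitor (10^-12 to 10^-5 M) 7 min, rate ΔAbs/s relative to DMSO control (1% v/v), triplicates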
T1 construct: made in house; host or cells: E. cloni EXPRESS BL21 (DE3) cells (Lucigen), pT7-SC1 plasmid
T1 sequence (P0ABQ4 whole entry): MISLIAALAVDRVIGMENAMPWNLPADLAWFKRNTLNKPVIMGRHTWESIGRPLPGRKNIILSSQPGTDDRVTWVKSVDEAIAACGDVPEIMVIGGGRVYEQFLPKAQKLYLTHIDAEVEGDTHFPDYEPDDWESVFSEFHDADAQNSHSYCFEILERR
Experimental: A 10 mM stock solution of the inhibitor in DMSO was divided into two parts. One half was thermally adapted with a heat gun for 1 min to obtain only the trans isomer.
The compounds were tested as eDHFR inhibitors via a colorimetric assay (Sigma-Aldrich, Catalog No. CS0340). Instead of the human DHFR protein provided in the kit, the in-house purified eDHFR was used. In a 3 mL cuvette, eDHFR (∼20 ng) was incubated with NADPH (60 μM, final) for 3 min, followed by an incubation with the inhibitor (from 10^–5 to 10^–12 M, final) for an additional 7 min. […] The concentration of DMSO in the final volume was 1% v/v for all enzymatic reactions. The measurements were performed in triplicates. For the control enzymatic reactions, eDHFR was incubated with NADPH and DMSO (1% v/v, final). […] The related control enzymatic reaction was also performed under continuous irradiation with λ1 = 390 nm light. Linear regression was performed in Microsoft Excel to calculate ΔAbs/s. % eDHFR activity was calculated as the ratio between ΔAbs/s for the sample and ΔAbs/s for the control reaction. GraphPadPrism 5.0 (GraphPad Software, Inc., version 5.00) was used for the determination of the IC50 of each inhibitor. Nonlinear regression was used for data fitting.

[1] = Thermal cis-to-trans isomerization (thermal half-life of the metastable cis isomer); assay type: physicochemical; details: for t1/2 DMSO (25 °C): thermal cis-to-trans isomerization, 20 µM; for thermal lifetime t1/2: at 25 and 37 °C
Experimental: (§1) UV–vis absorption spectra were recorded on an Agilent 8453 UV–vis Spectrophotometer. Photochemical isomerization (photoswitching) was achieved by irradiation from the side in a fluorescence quartz cuvette (width = 1.0 cm) using a custom-built (Prizmatix/Mountain Photonics) multiwavelength fiber coupled LED system (FC6-LED-WL) including the following LEDs: 365A, 390B, 420Z, 445B, 535R, 630CA. A detailed description of the setup was published by us recently.[84] Alternatively, the samples were irradiated at 340 nm using the LOT Quantum design setup with 300 W Xe-Arc lamp, using the Thorlabs FB340-10 Bandpass filter. A Quantum Northwest TC1 temperature controller was used to maintain the temperature at 25 °C during photochemical studies. To analyze the fatigue resistance of the compounds, repeated irradiation cycles were performed using alternating wavelengths. The decrease and increase of the π–π* transition band was followed by UV–vis spectroscopy (Agilent 8453) at 25 °C while stirring. To determine the thermal lifetime for the metastable cis isomer, samples were irradiated with the custom-built setup until photostationary state (PSS) was reached. Then, the cuvettes were placed in a JASCO V750 spectrophotometer with a PTC 424S/15 temperature controller, and the recovery of the π–π* transition was followed while stirring at 25 °C (for solutions in DMSO and eDHFR assay buffer) or 37 °C (for solutions in 10 mM Tris-HCl buffer pH 7.0). The data were fitted using a first-order exponential function in OriginPro 2018. For the PSD determination by ^1H NMR spectroscopy, 0.5 mL of a 2 mM solution of the respective compound in DMSO-d6 was thermally equilibrated by briefly (∼10 s) heating the sample with a heat gun. Subsequently, the sample was irradiated in a glass NMR tube with a 365 nm hand-held lamp (Spectroline ENB-280C) or the LEDs of the custom-built setup. Detailed data are reported in the SI.

[2] = Fatigue studies: repeated photoisomerization in the presence of GSH; assay type: physicochemical; details: eDHFR assay buffer, 10 mM GSH
Experimental: as §1

E. coli CS1562 = test: Antibacterial activity assay (MIC, bacterial growth curves); assay type: cell-based, Escherichia coli; details: for MIC: Escherichia coli, E. coli CS1562, 24 h
Experimental: A culture of E. coli CS1562 was grown overnight in LB medium (10 g/L tryptone, 5 g/L yeast extract, 5 g/L NaCl) containing tetracycline (10 μg/mL) at 37 °C. The OD600 was measured, and the culture was diluted to 0.002 OD600 in LB medium. Series dilutions of the compounds were prepared in DMSO and diluted 25 times in sterile LB medium in a black sterile Eppendorf tube. […] Subsequently, the dark samples were added to the 96-well plate (100 μL, triplicates). Lastly, the LB medium containing E. coli CS1562 at 0.002 OD was added to every well (100 μL). The cells were grown overnight at 37 °C in a plate reader (Synergy H1, Biotek), and the OD600 was measured every 10 min with a 10 s shaking step before each measurement. The OD600 curves were background-corrected by subtracting the value at t = 0. […] Detailed data are reported in the SI.

[3] = Solubility in eDHFR assay buffer; assay type: physicochemical; details: aqueous with cosolvent or surfactant or cyclodextrin, with 20% DMSO as an additive
[4] = IC50 Dark, dark-adapted (thermally adapted, trans isomer)
[5] = irradiated to PSS with λ1 (340 nm for 3, 365 nm for 6-15), read-out: IC50 Light
[6] = after irradiation, read-out: DHFR inhibition IC50 (nM) after irradiation
[7] = light or radiation study, after irradiation with λ1 = 365 nm, read-out: MIC Light
[8] = light or radiation study, after irradiation, read-out: MIC (µM) after irradiation
[9] = light or radiation study, before irradiation, read-out: MIC (µM) before irradiation

Which IC50 (eDHFR; [4]) does the source give for `Nc1ncc(-c2cccc(/N=N/c3ccccc3)c2)c(N)n1` [Compound 3, (E)-5-[3-(Phenyldiazenyl)phenyl]pyrimidine-2,4-diamine] here?
Its IC50 is 280 nM.

And the IC50 (eDHFR; [5])?
The IC50 was 710 nM.

And the “t1/2 DMSO (25 °C)” value [1]?
The value was greater than 24 h.

And the “fatigue / resistance to reduction upon repeated irradiation cycles” value [2]?
Its value is “no sign of fatigue”.

And the melting point?
Its melting point is 209 to 211 °C.

Which IC50 (eDHFR; [4]) does the source give for `COC(C)(C#Cc1cnc(N)nc1N)c1ccc(/N=N/c2ccccc2)cc1` (stereo not drawn) [Compound 6, (E)-5-{3-Methoxy-3-[4-(phenyldiazenyl)phenyl]but-1-yn-1-yl}pyrimidine-2,4-diamine] here?
Its IC50 is 370 nM.

What about the IC50 (eDHFR; [6]) of the same molecule?
The IC50 was 160 ± 62 nM.

And the IC50 (eDHFR; [5])?
The IC50 was 160 ± 62 nM.

What about the IC50 (eDHFR; irradiated with λ1 (1: continuous irradiation at 390 nm), read-out: IC50 Light) of the same molecule?
The IC50 was 160 nM.

And the “light-induced change in eDHFR inhibition (dark IC50 vs irradiated IC50)” value (eDHFR)?
Its value is 2 fold.

What about the MIC (E. coli CS1562; [7]) of the same molecule?
The MIC was 20 µM.

What about the MIC (E. coli CS1562; [8]) of the same molecule?
The MIC was 20 µM.

And the MIC (E. coli CS1562; [9])?
Its MIC is greater than 40 µM.

And the MIC (E. coli CS1562; dark, read-out: MIC Dark)?
The MIC was greater than 40 µM.

And the “light-induced difference in antibacterial activity (dark MIC vs irradiated MIC)” value (E. coli CS1562; irradiation with λ1 = 365 nm, E. coli CS1562)?
The value was greater than 2 fold.

And the “thermal lifetime t1/2” value [1]?
Its value is greater than 24 h.

What about the “t1/2 DMSO (25 °C)” value [1] of the same molecule?
The value was greater than 24 h.

And the “fatigue / resistance to reduction upon repeated irradiation cycles” value [2]?
Its value is “robust photoswitching”.

And the solubility [3]?
The solubility was no more than 5 µM.

And the melting point?
Its melting point is 149 to 150 °C.

For `COC(C)(C#Cc1cnc(N)nc1N)c1cccc(/N=N/c2ccccc2)c1` (stereo not drawn) [Compound 7, (E)-5-{3-Methoxy-3-[3-(phenyldiazenyl)phenyl]but-1-yn-1-yl}pyrimidine-2,4-diamine], which IC50 (eDHFR; [6]) is on record?
Its IC50 is 250 ± 140 nM.

And the IC50 (eDHFR; before irradiation, read-out: DHFR inhibition IC50 (nM) before irradiation)?
Its IC50 is 190 ± 40 nM.

What about the “light-induced change in eDHFR inhibition (dark IC50 vs irradiated IC50)” value (eDHFR) of the same molecule?
The value was “not significant”.

And the MIC (E. coli CS1562; [7])?
The MIC was 20 µM.

And the MIC (E. coli CS1562; [8])?
Its MIC is 20 µM.

And the MIC (E. coli CS1562; [9])?
The MIC was 20 µM.

And the MIC (E. coli CS1562; dark, read-out: MIC Dark)?
Its MIC is 20 µM.

And the “MIC / bacterial growth inhibition, same in both forms” value (E. coli CS1562; both before and after irradiation with λ1 = 365 nm, E. coli CS1562)?
Its value is 20 µM.

What about the “thermal lifetime t1/2” value [1] of the same molecule?
Its value is greater than 24 h.

And the “t1/2 DMSO (25 °C)” value [1]?
The value was greater than 24 h.

What about the “fatigue / resistance to reduction upon repeated irradiation cycles” value [2] of the same molecule?
Its value is “robust photoswitching”.

And the solubility [3]?
Its solubility is no more than 5 µM.

What about the melting point of the same molecule?
The melting point was 105 to 107 °C.
